Patent publication US20260125368A1, “SALT OF GLP-1R AGONIST, PREPARATION METHOD THEREFOR AND USE THEREOF” (MINDRANK AI LTD., priority 2022, published 2026)

Assay: Hygroscopic behavior test by dynamic vapor sorption (DVS)
Type: physicochemical
Conditions: 25° C.; for Did the crystal form change before and after the test?: 0-90% RH; for Hygroscopicity / 80% RH sample weight change (%): 80% RH; for 80% RH sample weight change (%): adsorption 0-90% RH
Text: The experimental method for characterizing an acid salt or a base salt of compound I by dynamic vapor sorption (DVS) was as follows: A small amount of a powder of the acid salt or the base salt of compound I was taken and placed into a precise sample tray that matches the instrument. After the sample was loaded, the sample tray was sent into the instrument for analysis. In the present disclosure, the instrument model used in the dynamic vapor sorption analysis was Intrinsic PLUS; the experimental parameter was set as follows: a constant temperature of 25° C. was set; the mass percent change rate per unit time (dm/dt)=0.02%/min was used as a criterion for determining that a balance is achieved; the program humidity change cycle was set as follows: the initial relative humidity was 0%, and the endpoint relative humidity was 90%.
The hygroscopic behavior of a compound affects the production, storage, stability, and quality of the drug.

SMILES: O=C(O)c1ccc2nc(CN3CCC(Oc4cccc(COc5ccc(Cl)cc5F)n4)CC3)n(C[C@@H]3CCO3)c2c1 [Free form of compound I-1, (S)-2-((4-((6-((4-chloro-2-fluorophenoxy)methyl)pyridin-2-yl)oxy)piperidin-1-yl)methyl)-1-(oxetan-2-ylmethyl)-1H-benzo[d]imidazole-6-carboxylic acid]
- Did the crystal form change before and after the test?: no solid form change was observed and No
- Hygroscopicity: slightly hygroscopic
- 80% RH sample weight change (%): 0.90%

SMILES: N#Cc1ccc(OCc2cccc(OC3CCN(Cc4nc5ccc(C(=O)O)cc5n4C[C@@H]4CCO4)CC3)n2)c(F)c1 [Free form of compound I-2, (S)-2-((4-((6-((4-cyano-2-fluorophenoxy)methyl)pyridin-2-yl)oxy)piperidin-1-yl)methyl)-1-(oxetan-2-ylmethyl)-1H-benzo[d]imidazole-6-carboxylic acid]
- Did the crystal form change before and after the test?: no solid form change was observed and No
- Hygroscopicity: slightly hygroscopic
- 80% RH sample weight change (%): 0.71%
